# Where “and” joins values, the source holds several entries; their conditions need not be identical. Identical values can stand only once.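 Compound exposure: 48 hours, 5 concentrations, 96-well plates. GI50 is the concentration that inhibits growth by half.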 Calls of active or inactive are those of the source. Rule as the data show it: active = GI50 up to about 1.1 µM and inactive = higher.
# Experiments:
# Assay in all cases: DTP human tumour cell line panel, 48 h
# A498 = test system: A498
# A549 = test system: A549
# BT-549 = test system: BT-549
# CCRF-CEM = test system: CCRF-CEM
# DLD-1 = test system: DLD-1
# DMS-114 = test system: DMS-114
# DMS-273 = test system: DMS-273
# HCC 2998 = test system: HCC 2998
# HCT-116 = test system: HCT-116
# HOP-18 = test system: HOP-18
# Hs-578T = test system: Hs-578T
# KM-20L2 = test system: KM-20L2
# LOX IMVI = test system: LOX IMVI
# LXFL 529 = test system: LXFL 529
# M19-MEL = test system: M19-MEL
# MDA-MB-435 = test system: MDA-MB-435
# MDA-N = test system: MDA-N
# NCI-H226 = test system: NCI-H226
# NCI/ADR-RES = test system: NCI/ADR-RES
# PC-3 = test system: PC-3
# SK-MEL-5 = test system: SK-MEL-5
# SK-OV-3 = test system: SK-OV-3
# SN12C = test system: SN12C
# SNB-78 = test system: SNB-78
# SW-620 = test system: SW-620
# UACC-257 = test system: UACC-257
# XF498 = test system: XF498
# 786-0 = test system: 786-0
# ACHN = test system: ACHN
# CAKI-1 = test system: CAKI-1
# COLO 205 = test system: COLO 205
# EKVX = test system: EKVX
# HL-60 = test system: HL-60
# HOP-62 = test system: HOP-62
# HOP-92 = test system: HOP-92
# IGROV-1 = test system: IGROV-1
# K562 = test system: K562
# KM12 = test system: KM12
# M14 = test system: M14
# MOLT-4 = test system: MOLT-4
# Malme-3M = test system: Malme-3M
# NCI-H23 = test system: NCI-H23
# NCI-H460 = test system: NCI-H460
# NCI-H522 = test system: NCI-H522
# OVCAR-3 = test system: OVCAR-3
# OVCAR-4 = test system: OVCAR-4
# OVCAR-5 = test system: OVCAR-5
# OVCAR-8 = test system: OVCAR-8
# RPMI-8226 = test system: RPMI-8226
# RXF 393 = test system: RXF 393
# SF-268 = test system: SF-268
# SF-295 = test system: SF-295
# SF-539 = test system: SF-539
# SK-MEL-28 = test system: SK-MEL-28
# SK-MEL-2 = test system: SK-MEL-2
# SNB-19 = test system: SNB-19
# SNB-75 = test system: SNB-75
# TK-10 = test system: TK-10
# U-251 = test system: U-251
# UACC-62 = test system: UACC-62
# UO-31 = test system: UO-31
smiles,measurement,setting,value
COC1=C(N)C(=O)c2nc(-c3nc(C(=O)O)c(C)c(-c4ccc(OC)c(OC)c4O)c3N)ccc2C1=O [STREPTONIGRIN],GI50,A498,8.11 nM (active) and 12.6 nM (active)
same,GI50,A549,0.00505 µM (active)
same,GI50,BT-549,0.00526 µM (active)
same,GI50,CCRF-CEM,< 10 nM (active) and 6.01 nM (active)
same,GI50,DLD-1,0.0131 µM (active)
same,GI50,DMS-114,< 0.01 µM (active)
same,GI50,DMS-273,< 0.01 µM (active)
same,GI50,HCC 2998,5.65 nM (active) and < 10.9 nM (active)
same,GI50,HCT-116,0.00619 µM (active)
same,GI50,HOP-18,< 0.01 µM (active)
same,GI50,Hs-578T,< 0.01 µM (active)
same,GI50,KM-20L2,10 nM (active) and 19 nM (active)
same,GI50,LOX IMVI,0.00581 µM (active)
same,GI50,LXFL 529,0.01 µM (active)
same,GI50,M19-MEL,0.01 µM (active)
same,GI50,MDA-MB-435,< 10 nM (active) and 8.59 nM (active)
same,GI50,MDA-N,0.00792 µM (active)
same,GI50,NCI-H226,< 10 nM (active) and 5.73 nM (active)
same,GI50,NCI/ADR-RES,0.00893 µM (active)
same,GI50,PC-3,0.0071 µM (active)
same,GI50,SK-MEL-5,< 10 nM (active) and 5.81 nM (active)
same,GI50,SK-OV-3,0.00826 µM (active)
same,GI50,SN12C,0.00785 µM (active)
same,GI50,SNB-78,19.4 nM (active) and < 10 nM (active)
same,GI50,SW-620,6.03 nM (active) and 10 nM (active)
same,GI50,UACC-257,7.87 nM (active) and < 10.7 nM (active)
same,GI50,XF498,< 0.01 µM (active)
Cc1nc(Nc2ccccc2)sc1C(=O)NNC(N)=O,GI50,786-0,> 100 µM (inactive)
same,GI50,A498,46.9 µM (inactive)
same,GI50,A549,> 100 µM (inactive)
same,GI50,ACHN,> 100 µM (inactive)
same,GI50,CAKI-1,> 100 µM (inactive)
same,GI50,CCRF-CEM,> 100 µM (inactive)
same,GI50,COLO 205,> 100 µM (inactive)
same,GI50,DLD-1,> 100 µM (inactive)
same,GI50,DMS-114,84.5 µM (inactive)
same,GI50,DMS-273,> 100 µM (inactive)
same,GI50,EKVX,55.6 µM (inactive)
same,GI50,HCC 2998,> 100 µM (inactive)
same,GI50,HCT-116,> 100 µM (inactive)
same,GI50,HL-60,> 100 µM (inactive)
same,GI50,HOP-18,> 100 µM (inactive)
same,GI50,HOP-62,49.8 µM (inactive)
same,GI50,HOP-92,64.4 µM (inactive)
same,GI50,IGROV-1,> 100 µM (inactive)
same,GI50,K562,> 100 µM (inactive)
same,GI50,KM-20L2,> 100 µM (inactive)
same,GI50,KM12,> 100 µM (inactive)
same,GI50,LOX IMVI,> 100 µM (inactive)
same,GI50,LXFL 529,> 100 µM (inactive)
same,GI50,M14,> 100 µM (inactive)
same,GI50,M19-MEL,> 100 µM (inactive)
same,GI50,MOLT-4,> 100 µM (inactive)
same,GI50,Malme-3M,> 100 µM (inactive)
same,GI50,NCI-H226,> 100 µM (inactive)
same,GI50,NCI-H23,> 100 µM (inactive)
same,GI50,NCI-H460,> 100 µM (inactive)
same,GI50,NCI-H522,> 100 µM (inactive)
same,GI50,OVCAR-3,> 100 µM (inactive)
same,GI50,OVCAR-4,> 100 µM (inactive)
same,GI50,OVCAR-5,> 100 µM (inactive)
same,GI50,OVCAR-8,> 100 µM (inactive)
same,GI50,RPMI-8226,> 100 µM (inactive)
same,GI50,RXF 393,29.2 µM (inactive)
same,GI50,SF-268,> 100 µM (inactive)
same,GI50,SF-295,> 100 µM (inactive)
same,GI50,SF-539,> 100 µM (inactive)
same,GI50,SK-MEL-28,> 100 µM (inactive)
same,GI50,SK-MEL-2,> 100 µM (inactive)
same,GI50,SK-MEL-5,> 100 µM (inactive)
same,GI50,SK-OV-3,> 100 µM (inactive)
same,GI50,SN12C,> 100 µM (inactive)
same,GI50,SNB-19,> 100 µM (inactive)
same,GI50,SNB-75,29.6 µM (inactive)
same,GI50,SNB-78,> 100 µM (inactive)
same,GI50,SW-620,> 100 µM (inactive)
same,GI50,TK-10,> 100 µM (inactive)
same,GI50,U-251,99.3 µM (inactive)
same,GI50,UACC-257,27.4 µM (inactive)
same,GI50,UACC-62,> 100 µM (inactive)
same,GI50,UO-31,> 100 µM (inactive)
same,GI50,XF498,> 100 µM (inactive)
